Measurements taken from paper PMC13130965, “An Integrated Approach Combining Regulatory Tests in tg(cyp19a1b:GFP) Zebrafish Embryos to Assess Toxicity, Developmental Effects, and Estrogenic Activity of Chemicals: A Case Study with Bisphenol A Substitutes” (Environmental Science & Technology, 2026).
≈ marks a conversion by molar mass, not a printed value. Where two headings read alike, the source gives them in different places.

Assays:
[1] = test system: tg(cyp19a1b:GFP) zebrafish embryos; test: Refined FET: developmental effects / malformations; type: in vivo, zebrafish (Danio rerio); conditions: nominal; for LOEC deformity of yolk: at least 10% of embryos affected
Protocol: (§1) Exposures were carried out in presaturated 24-well plates containing one embryo per well in 2 mL of test solution. The exposure was performed under semistatic conditions, with daily renewal of the test solution. The concentration ranges tested, along with a control with the same percentage of solvent alone, are recapitulated in Table S1. All exposure concentrations are reported as nominal. During the time course of the refined FET tests, embryos were observed after 8 h (coagulation), 24 h (lack of somite formation and nondetachment of the tail), and 48, 72, and 96 h of exposure (nondetection of the heartbeat). […] Moreover, hatching rate and nonlethal developmental effects (i.e., yolk deformity, growth retardation, spontaneous movement, edema, blood tail circulation, heart rate, pigmentation, head and tail/spinal malformations, and hemorrhage) were monitored daily. Tail/spinal malformations included lordosis, kyphosis, scoliosis, and reduced tail length.
(§2) This analysis considered all nonlethal developmental end points monitored in the refined FET assay (see above), except effects on hatching, pigmentation, spontaneous movement, and blood circulation. A teratogenic index (TI) was then calculated as the ratio LC50/EC50.

[2] = test system: cyp19a1b:GFP (brain aromatase) in tg(cyp19a1b:GFP) zebrafish embryos; test: Refined FET: GFP fluorescence imaging at 96 h; type: in vivo, zebrafish (Danio rerio); conditions: nominal
Protocol: as §1, with “All the tests were conducted according to OECD TG 236, except for the temperature (27 ± 2 °C), which was aligned with the OECD TG 250 (see below). Exposures” for “Exposures”, “length. […] To do so, each embryo was photographed and analyzed as described by Brion et al. At the end of the refined FET assay, all living zebrafish embryos were euthanized using a protocol combining anesthesia induced by 168 mg/L tricaine (Pharmaq, delivered from Vetofish, Chateauneuf-les-Martigues, France) and the addition of bleach solution (sodium hypochlorite 6.15%; 1 volume of bleach to 5 volumes of water) to induce death.” for “length.”
For fluorescence imaging, GFP fold induction was expressed as mean ± SEM, and values were compared to the DMSO control using one-way ANOVA followed by Dunnett’s posthoc test.

[3] = test system: cyp19a1b:GFP (brain aromatase) in tg(cyp19a1b:GFP) zebrafish embryos; test: EASZY assay (OECD TG 250): GFP induction; type: in vivo, zebrafish (Danio rerio); conditions: Danio rerio, 96 h, read-out: EASZY relative EC50, nominal; 96 h
Protocol: The tests were conducted according to OECD TG 250. Newly fertilized cyp19a1b-GFP eggs were transferred to glass crystallizing dishes and exposed for 96 h in a humidified climate chamber (27 ± 2 °C) under semistatic conditions with a total renewal of the test solutions each day. Each condition consisted of three crystallizing dishes, each containing 7 embryos and 15 mL of test medium. Embryos were exposed to a range of nonlethal concentrations of chemicals as determined previously based on the refined FET assays. The tested concentration ranges of bisphenols, along with a control with the same percentage of solvent alone, are summarized in Table S2. All exposure concentrations are reported as nominal. At the end of exposure, transgenic zebrafish embryos were collected for fluorescence imaging to quantify GFP intensity. At the end of the experiments, all living zebrafish embryos were euthanized as described above. […] ICI was added together with bisphenols from 0 to 4 dpf (days post fertilization). […] In all coexposure experiments, the final DMSO concentration was 0.02% (v/v).
For fluorescence imaging, GFP fold induction was expressed as mean ± SEM, and values were compared to the DMSO control using one-way ANOVA followed by Dunnett’s posthoc test. […]

[4] = molecular target: zebrafish ERβ2 (zfERβ2) (Danio rerio, UniProt Q7ZU32); test: ZELH-zfERβ2 luciferase reporter gene assay; type: cell-based; conditions: read-out: maximal efficacy
Sequence of zebrafish ERβ2 (zfERβ2) (Q7ZU32 1-553): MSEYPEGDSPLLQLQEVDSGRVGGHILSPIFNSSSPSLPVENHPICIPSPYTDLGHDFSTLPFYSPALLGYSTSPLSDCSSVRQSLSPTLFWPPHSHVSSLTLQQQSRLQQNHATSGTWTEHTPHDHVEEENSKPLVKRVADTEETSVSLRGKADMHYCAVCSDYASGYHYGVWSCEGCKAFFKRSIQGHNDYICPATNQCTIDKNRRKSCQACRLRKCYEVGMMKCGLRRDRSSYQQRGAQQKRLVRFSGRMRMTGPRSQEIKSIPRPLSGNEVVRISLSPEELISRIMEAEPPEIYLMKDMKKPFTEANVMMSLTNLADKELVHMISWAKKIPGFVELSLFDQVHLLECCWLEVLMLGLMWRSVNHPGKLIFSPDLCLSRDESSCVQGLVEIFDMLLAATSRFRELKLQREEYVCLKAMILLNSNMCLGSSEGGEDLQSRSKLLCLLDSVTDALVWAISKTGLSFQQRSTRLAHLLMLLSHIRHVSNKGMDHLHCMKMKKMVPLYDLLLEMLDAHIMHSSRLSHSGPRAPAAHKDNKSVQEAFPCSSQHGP
Protocol: The ZELH-zfERs reporter cell line was previously established after a two-step stable transfection of the zebrafish hepatic cell line ZFL with the luciferase gene under the control of ERE (yielding the ZELH cell line that expresses no functional ER) and the zebrafish ER subtype β2 (yielding the ZELH-zfERβ2 cell line). Cells were cultured, exposed to chemicals for 72 h, and measured for luciferase activity exactly as previously described. , For each chemical, serial dilutions were prepared in DMSO and tested in three independent experiments. The final DMSO concentration in the culture medium was always 0.1% v/v. All tested concentrations refer to nominal concentrations.

[5] = test system: hERβ; parameters: method as in Grimaldi et al.; conditions: HELN-hERβ; ref Grimaldi et al.; cited from earlier work
[6] = test system: hERβ; parameters: method as in Pelch et al.; conditions: HepG2-hERβ, ref Pelch et al., cited from earlier work
[7] = test system: Zebrafish embryos; conditions: cited from earlier work; for LC10(96h): ref Blanc et al. (2019); for Hatching success EC50(72h): ref Moreman et al. (2017); for LOEC (body length, GnRH3 neurons, reproductive neuroendocrine-related genes and hormones) / NOEC (body length, GnRH3 neurons, reproductive neuroendocrine-related genes and hormones): ref Qiu et al. (2021)
[8] = test system: tg(cyp19a1b:GFP) zebrafish embryos; test: Refined Fish Embryo Acute Toxicity test (FET, OECD TG 236): mortality; type: in vivo, zebrafish (Danio rerio); conditions: nominal, brackets 95% CI
Protocol: as §1, §2
(§3) Baseline toxicity and experimental FET LC50 values were used to calculate toxic ratios (TR = predicted baseline toxicity LC50/experimental FET LC50). Compounds with TR < 10 were considered as baseline toxicants.

[9] = as above; type: in vivo, zebrafish (Danio rerio); conditions: tg(cyp19a1b:GFP), zebrafish, in vivo, other: waterborne exposure of embryos in test solution, LC50 (96h) experimental (FET test), nominal, brackets 95% CI
Protocol: as §1, §2, §3

[10] = ref Adamovsky et al.; cited from earlier work
[11] = test system: Adult Zebrafish; conditions: ref Ren et al. (2017); cited from earlier work
[12] = zebrafish embryos, ref Ren et al. (2017)

## O=S(=O)(c1ccc(O)cc1)c1ccc(O)cc1 [BPS, 4-(4-hydroxyphenyl)sulfonylphenol]
[1]
  LOEC deformity of yolk: 400 mg/L
[2]; Danio rerio, Hill model, read-out: EC50 GFP induction in refined FET
  EC50: 35.7 µg/mL (≈ 143 µM)
[2]
  EC10 GFP induction in refined FET: 16.6 µg/mL (≈ 66.3 µM)
  EC20 GFP induction in refined FET: 22.0 µg/mL (≈ 87.9 µM)
[3]
  EC50: 62.7 µg/mL (≈ 251 µM)
[4]
  Emax: 85%
[5]
  EC50: 1720 nM
  maximal efficacy: 100%
[6]; NA = not active
  EC50: 2100 nM
[6]
  maximal efficacy: 77%
[7]; 4-days exposure
  LC10(96h): > 100 µg/mL
  Hatching success EC50(72h): 155 (15) mg/L
[7]; 120h-exposure
  LOEC (body length, GnRH3 neurons, reproductive neuroendocrine-related genes and hormones): 100 µg/L
  NOEC (body length, GnRH3 neurons, reproductive neuroendocrine-related genes and hormones): 1 µg/L
[7]
  LC10(96h): > 400000 nM
[7]; [12]
  Body length LOEC: 350 mg/L
  Body length NOEC: 300 mg/L
  Hatching rate EC50(120h): 200 µg/mL
  Heart rate EC50(78h): 318 µg/mL

## Nc1ccc(Cl)c(Cl)c1 [3,4-DCA, reference compound]
[8]
  LC50 (96h) experimental (FET test): 2.46 mg/L (≈ 15.2 µM)
[7]; ref OECD TG 236 validation report
  mean LC50 of FET positive control: 2.7 µg/mL

## Oc1ccc(Cc2ccc(O)cc2)cc1 [BPF, 4-[(4-hydroxyphenyl)methyl]phenol]
[9]
  LC50 at 96 h: 35 µg/mL (≈ 175 µM)
[8]
  LC50 (96h) experimental (FET test): 35.07 [33.99;35.07] mg/L
[1]; Danio rerio, end of 96 h exposure, read-out: EC50 malformations (cumulative sublethal end points)
  EC50: 17.2 µg/mL (≈ 85.9 µM)
[1]
  LOEC edema: 15 mg/L
  LOEC head malformations: 7.5 mg/L
  LOEC heart rate disruption: 60 mg/L
  LOEC hemorrhage: 7.5 mg/L
  LOEC no blood tail circulation: 60 mg/L
  LOEC no spontaneous movement: 60 mg/L
  LOEC tail/spinal malformations: 30 mg/L
  LOEC deformity of yolk: 15 mg/L
[3]
  EC50: 0.407 µg/mL (≈ 2.03 µM)
[4]
  Emax: 71%
[10]
  Log Kow: 2.91
[5]
  EC50: 952 nM
  maximal efficacy: 100%
[7]; 4-days exposure
  Hatching success EC50(72h): 14 (0.41) mg/L
[7]; 120h-exposure
  LOEC (body length, GnRH3 neurons, reproductive neuroendocrine-related genes and hormones): 100 µg/L
  NOEC (body length, GnRH3 neurons, reproductive neuroendocrine-related genes and hormones): 1 µg/L
[7]; Wildtype (AB/TL), 1-6 dpf static + 6-9 dpf semistatic, ref Catron et al. (2018; 2019)
  NOEC (developmental toxicity): 15.3 µM
[7]; Wildtype AB, 120h-exposure, ref Yang et al. (2017)
  LC50(96h): 10.030 µg/mL (≈ 50.1 µM)
[7]; at 20 mg/L, ref Tišler et al. (2016)
  mortality: 20%
[7]; read-out: LC50(96h), Wildtype AB, 96h-exposure, ref Arrokhman et al. (2023)
  LC50: 120000 nM
[7]; ref Tišler et al. (2016)
  Edema EC50(48h): 10.7 (9.4-12.2) mg/L
  Hatching inhibition EC50(72h): 6.8 (5.8-8.5) mg/L
  Pigmentation EC50(48h): 1.1 (0.92-1.3) mg/L
[7]; zebrafish embryos, 95% CI, ref Mu et al.
  LC50 (96h) literature: 19.6 [18.47–20.67] mg/L
[7]; zebrafish embryos, parentheses SEM, ref Moreman et al.
  LC50 (96h) literature: 32 (0.55) mg/L
[7]; zebrafish embryos, ref Arrokhman et al.
  LC50 (96h) literature: 24 mg/L (≈ 120 µM)
[7]; zebrafish embryos, ref Gao et al.
  LC50 (96h) literature: 24.5 mg/L (≈ 122 µM)
[7]; zebrafish embryos, ref Gu et al.
  LC50 (96h) literature: 7.40 mg/L (≈ 37 µM)
[7]; [12]
  Body length LOEC: 8 mg/L
  Body length NOEC: 6 mg/L
  LC50(24h): 9.13 µg/mL (≈ 45.6 µM)
  LC50(48h): 8.93 µg/mL (≈ 44.6 µM)
  LC50(72h): 8.56 µg/mL (≈ 42.7 µM)
[7]; zebrafish embryos, ref Ren et al.
  LC50 (96h) literature: 7.40 mg/L (≈ 37 µM)
[11]
  LC50(24h): 10.10 µg/mL (≈ 50.4 µM)
  LC50(48h): 9.86 µg/mL (≈ 49.2 µM)
  LC50(72h): 9.51 µg/mL (≈ 47.5 µM)
  LC50(96h): 9.51 µg/mL (≈ 47.5 µM)
